# Experimental data: patent US5863915A, “Substituted 4-arylbutyric acid derivatives as matrix metalloprotease” (Bayer Corporation, priority 1997, dated 1999)
# Experiments:
# MMP-3, MMP-9 and MMP-2 = assay: MMP profiling assay, overall comparison of the three MMPs (Table 5 data); format: biochemical, human; conditions: for MMP inhibition activity in words: substituent size on the 4-phenyl ring; for selectivity of activity among the MMP's, in words: MMP-2 and MMP-9 vs MMP-3
# Source text: MMP Microfluorometric Profiling Assay
# IC50 Determination in Microfluorometric Assay
# ((Control values-Treated Values)/Control Values)×100
# human colon tumor = conditions: given intraperitoneally; orthotopic model in nude mice; cited from earlier work
# [1] = tested on: human ovarian carcinoma xenografts; conditions: mouse, in vivo; cited from earlier work
Structure (SMILES),"MMP inhibition activity in words (MMP-3, MMP-9 and MMP-2)",further results
"O=C(CC(CCN1C(=O)c2ccccc2C1=O)C(=O)O)c1ccc(Br)cc1 (centres unmarked) [Compound B, 4-(4-bromophenyl)-4-oxo-2-(2-phthalimidoethyl) butyric acid]",activities are low,
"O=C(CC(CCN1C(=O)c2ccccc2C1=O)C(=O)O)c1ccccc1 (centres unmarked) [Compound D, 4-phenyl-4-oxo-2-(2-phthalimidoethyl)butyric acid]",activities are low,
"CCCCCCCCCCCCCCOc1ccc(C(=O)CC(CCN2C(=O)c3ccccc3C2=O)C(=O)O)cc1 (centres unmarked) [Compound F, 4-(4-tetradecyloxyphenyl)-4-oxo-2-(2-phthalimidoethyl)butyric acid]",activity is also low,
"COc1ccc(C(=O)CC(CCN2C(=O)c3ccccc3C2=O)C(=O)O)cc1 (centres unmarked) [Compound G, 4-(4-methoxyphenyl)-4-oxo-2-(2-phthalimidoethyl)butyric acid]",activities are low,
"CCCCCCCOc1ccc(C(=O)CC(CCN2C(=O)c3ccccc3C2=O)C(=O)O)cc1 (centres unmarked) [Example 10, 4-(4-heptyloxyphenyl)4-oxo-2-(2-phthalimidoethyl) butyric acid]",,"selectivity of activity among the MMP's, in words (MMP-3, MMP-9 and MMP-2): broad high activity"
"CCCCCCOc1ccc(C(=O)CC(CCN2C(=O)c3ccccc3C2=O)C(=O)O)cc1 (centres unmarked) [Example 11, 4-(4-hexyloxyphenyl)-4-oxo-2-(2-phthalimidoethyl) butyric acid]",,"selectivity of activity among the MMP's, in words (MMP-3, MMP-9 and MMP-2): broad high activity"
CNC(=O)[C@H](Cc1ccccc1)NC(=O)[C@H](CC(C)C)[C@H](CSc1cccs1)C(=O)NO [batimastat],,human colon tumor growth and spread (human colon tumor): inhibits human colon tumor growth and spread; survival of mice bearing human ovarian carcinoma xenografts [1]: prolongs the survival of mice
